Reference: US11427567B2, “Imidazolyl pyrimidinylamine compounds as CDK2 inhibitors” (Incyte Corporation, priority 2019, dated 2022)

Target: CDK2/Cyclin E1 (Homo sapiens (Human), UniProt P24941)
Experiment: CDK2/Cyclin E1 HTRF enzyme activity assay (Example A)
Type: biochemical
Conditions: 1 mM ATP
Method: Assays were conducted in white 384-well polystyrene plates in a final reaction volume of 8 μL. […] HTRF signals were read after 1 hour at room temperature on a PHERAstar FS plate reader (BMG Labtech). Data was analyzed with IDBS XLFit and GraphPad Prism 5.0 software using a three or four parameter dose response curve to determine IC50 for each compound.

IC50, ≤ 50 nM:
CN1CCN(Cc2cc(F)c(-n3cnc(-c4nc(NC5CCN(S(C)(=O)=O)CC5)ncc4C(F)(F)F)c3)c(F)c2)CC1=O [Example 409, 4-(3,5-Difluoro-4-(4-(2-((1-(methylsulfonyl)piperidin-4-yl)amino)-5-(trifluoromethyl)pyrimidin-4-yl)-1H-imidazol-1-yl)benzyl)-1-methylpiperazin-2-one]
C[C@]1(O)CCN(Cc2ccc(-n3cnc(-c4nc(NC5CCN(S(C)(=O)=O)CC5)ncc4C(F)(F)F)c3)c(Cl)c2)C1 [Example 204, (S)-1-(3-Chloro-4-(4-(2-((1-(methyl-sulfonyl)piperidin-4-yl)amino)-5-(trifluoromethyl)-pyrimidin-4-yl)-1H-imidazol-1-yl)-benzyl)-3-methyl-pyrrolidin-3-ol]
Cc1cc(C#N)ccc1-n1cnc(-c2nc(NC3CCN(S(C)(=O)=O)CC3)ncc2C(F)(F)F)c1 [Example 35, 3-Methyl-4-(4-(2-((1-(methylsulfonyl)piperidin-4-yl)amino)-5-(trifluoromethyl)pyrimidin-4-yl)-1H-imidazol-1-yl)benzonitrile]
CS(=O)(=O)N1CCC(Nc2ncc(C(F)(F)F)c(-c3cn(-c4ccnc(C#N)c4Cl)cn3)n2)CC1 [Example 307, 3-Chloro-4-(4-(2-((1-(methylsulfonyl)piperidin-4-yl)amino)-5-(trifluoromethyl)pyrimidin-4-yl)-1H-imidazol-1-yl)picolinonitrile]
C[C@@H]1CN(c2ccc(-n3cnc(-c4nc(NC5CCN(S(C)(=O)=O)CC5)ncc4C(F)(F)F)c3)c(Cl)c2)CCN1 [Example 141, (R)-4-(1-(2-Chloro-4-(3-methyl-piperazin-1-yl)-phenyl)-1H-imidazol-4-yl)-N-(1-(methyl-sulfonyl)piperidin-4-yl)-5-(trifluoro-methyl)pyrimidin-2-amine]
CNCc1ccc(-n2cnc(-c3nc(NC4CCN(S(C)(=O)=O)CC4)ncc3C(F)(F)F)c2)c(C#N)c1 [Example 249, 5-((Methylamino)methyl)-2-(4-(2-((1-(methylsulfonyl)piperidin-4-yl)amino)-5-(trifluoromethyl)pyrimidin-4-yl)-1H-imidazol-1-yl)benzonitrile]
CC(=O)NCc1ccc(-n2cnc(-c3nc(NC4CCN(S(C)(=O)=O)CC4)ncc3C(F)(F)F)c2)c(Cl)c1 [Example 185, N-(3-Chloro-4-(4-(2-((1-(methylsulfonyl)piperidin-4-yl)amino)-5-(trifluoromethyl)pyrimidin-4-yl)-1H-imidazol-1-yl)benzyl)acetamide]
CC(C#N)Oc1ccc(-n2cnc(-c3nc(NC4CCN(S(C)(=O)=O)CC4)ncc3C(F)(F)F)c2)c(C(F)(F)F)n1 (stereo not shown) [Example 74, 2-((5-(4-(2-((1-(Methylsulfonyl)piperidin-4-yl)amino)-5-(trifluoromethyl)pyrimidin-4-yl)-1H-imidazol-1-yl)-6-(trifluoromethyl)pyridin-2-yl)oxy)propanenitrile]
Cc1nc(-c2nc(NC3CCN(S(C)(=O)=O)CC3)ncc2C(F)(F)F)cn1-c1ccc(CN2CC(C(C)(C)O)C2)cc1F [Example 282, 2-(1-(3-Fluoro-4-(2-methyl-4-(2-((1-(methylsulfonyl)piperidin-4-yl)amino)-5-(trifluoromethyl)pyrimidin-4-yl)-1H-imidazol-1-yl)benzyl)azetidin-3-yl)propan-2-ol]
CS(=O)(=O)N1CCC(Nc2ncc(C(F)(F)F)c(-c3cn(-c4cccc(CN5CC[C@@H](O)C5)c4Cl)cn3)n2)CC1 [Example 364, (R)-1-(2-Chloro-3-(4-(2-((1-(methyslulfonyl)piperidin-4-yl)amino)-5-(trifluoromethyl)pyrimi-din-4-yl)-1H-imidazol-1-yl)benzyl)pyrrolidin-3-ol]
CS(=O)(=O)N1CCC(Nc2ncc(C(F)(F)F)c(-c3cn(-c4ccc(Cn5cnnn5)cc4Cl)cn3)n2)CC1 [Example 244, 4-(1-(4-((1H-Tetrazol-1-yl)methyl)-2-chlorophenyl)-1H-imidazol-4-yl)-N-(1-(methylsulfonyl)piperidin-4-yl)-5-(trifluoromethyl)pyrimidin-2-amine]
Cc1nc(-c2nc(N[C@H]3CCN(S(C)(=O)=O)C[C@H]3F)ncc2C(F)(F)F)cn1-c1cccc(C#N)c1Cl [Example 384, 2-Chloro-3-(4-(2-(((3R,4S)-3-fluoro-1-(methylsulfonyl)piperidin-4-yl)amino)-5-(trifluoromethyl)pyrimi-din-4-yl)-2-methyl-1H-imidazol-1-yl)benzonitrile]
CC(c1cccc(-n2cnc(-c3nc(NC4CCN(S(C)(=O)=O)CC4)ncc3C(F)(F)F)c2)c1Cl)N(C)C (stereo not shown) [Example 376, 4-(1-(2-Chloro-3-(1-(dimethylamino)ethyl)phe-nyl)-1H-imidazol-4-yl)-N-(1-(methylsulfonyl)piperidin-4-yl)-5-(trifluoromethyl)pyrimi-din-2-amine]
C[C@@H]1CN(S(C)(=O)=O)CC[C@@H]1Nc1ncc(C(F)(F)F)c(-c2cn(-c3ccc(C#N)cc3Cl)cn2)n1 [Example 172, 3-Chloro-4-(4-(2-(((3R,4S)-3-methyl-1-(methylsulfonyl)-piperidin-4-yl)-amino)-5-(trifluoro-methyl)pyrimidin-4-yl)-1H-imidazol-1-yl)benzonitrile]
Cc1nc(C#N)ccc1-n1cnc(-c2nc(NC3CCN(S(C)(=O)=O)CC3)ncc2C(F)(F)F)c1 [Example 33, 6-Methyl-5-(4-(2-((1-(methylsulfonyl)piperidin-4-yl)amino)-5-(trifluoromethyl)pyrimidin-4-yl)-1H-imidazol-1-yl)picolinonitrile]
Cc1nc(-c2nc(N[C@H]3CCN(S(C)(=O)=O)C[C@H]3F)ncc2C(F)(F)F)cn1-c1ccc(C#N)cc1F [Example 299, 3-Fluoro-4-(4-(2-(((3R,4S)-3-fluoro-1-(methylsulfonyl)piperidin-4-yl)amino)-5-(trifluoromethyl)pyrimidin-4-yl)-2-methyl-1H-imidazol-1-yl)benzonitrile]
CS(=O)(=O)N1CCC(Nc2ncc(C(F)(F)F)c(-c3cn(-c4ccc5ncccc5c4Br)cn3)n2)CC1 [Example 164, 4-(1-(5-Bromoquinolin-6-yl)-1H-imidazol-4-yl)-N-(1-(methyl-sulfonyl)piperidin-4-yl)-5-(trifluoromethyl)-pyrimidin-2-amine]
Cc1nc(CN2CCC2)ccc1-n1cnc(-c2nc(NC3CCN(S(C)(=O)=O)CC3)ncc2C(F)(F)F)c1 [Example 252, 4-(1-(6-(Azetidin-1-ylmethyl)-2-methylpyridin-3-yl)-1H-imidazol-4-yl)-N-(1-(methylsulfonyl)piperidin-4-yl)-5-(trifluoromethyl)pyrimidin-2-amine]
CC1(O)CN(Cc2cccc(-n3cnc(-c4nc(NC5CCN(S(C)(=O)=O)CC5)ncc4C(F)(F)F)c3)c2C(F)(F)F)C1 [Example 379, 3-Methyl-1-(3-(4-(2-((1-(methylsulfonyl)piperidin-4-yl)amino)-5-(trifluoromethyl)pyrimi-din-4-yl)-1H-imidazol-1-yl)-2-(trifluoromethyl)benzyl) azetidin-3-ol]
